{"source": "ChEMBL document CHEMBL1201862", "about": "“PubChem BioAssay data set” (2004)", "assay_in_all_cases": "DTP human tumour cell line panel, 48 h", "key": {"COLO 205": {"tested_on": "COLO 205"}, "Hs-578T": {"tested_on": "Hs-578T"}, "U-251": {"tested_on": "U-251"}, "NCI-H460": {"tested_on": "NCI-H460"}, "DU-145": {"tested_on": "DU-145"}, "IGROV-1": {"tested_on": "IGROV-1"}, "A549": {"tested_on": "A549"}, "HOP-92": {"tested_on": "HOP-92"}, "MDA-MB-435": {"tested_on": "MDA-MB-435"}, "BT-549": {"tested_on": "BT-549"}, "NCI-H23": {"tested_on": "NCI-H23"}, "HCC 2998": {"tested_on": "HCC 2998"}, "NCI-H522": {"tested_on": "NCI-H522"}, "RPMI-8226": {"tested_on": "RPMI-8226"}, "CAKI-1": {"tested_on": "CAKI-1"}, "UACC-62": {"tested_on": "UACC-62"}, "LOX IMVI": {"tested_on": "LOX IMVI"}, "SF-268": {"tested_on": "SF-268"}, "OVCAR-8": {"tested_on": "OVCAR-8"}, "MOLT-4": {"tested_on": "MOLT-4"}}, "note": "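Test compounds were applied to cells in 96-well plates for 48 hours at 5 doses. Here, GI50 denotes the concentration required for 50% inhibition of growth.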 The source made the active and inactive calls. Cut-off read from the data, not from the text of the source: active = GI50 up to about 1.1 µM and inactive = higher.", "data": [{"smiles": "COC(=O)C1(C)CC2C(C)(CCC3(C)C4=CC=C5C(=CC(=O)C(O)=C5C)C4(C)CCC23C)CC1O", "note": "(stereo not given)", "values": [{"measurement": "GI50", "setting": "COLO 205", "value": "0.627 µM (active)"}, {"measurement": "GI50", "setting": "Hs-578T", "value": "1.07 µM (active)"}, {"measurement": "GI50", "setting": "U-251", "value": "1.09 µM (active)"}, {"measurement": "GI50", "setting": "NCI-H460", "value": "1.79 µM (inactive)"}, {"measurement": "GI50", "setting": "DU-145", "value": "1.36 µM (inactive)"}, {"measurement": "GI50", "setting": "IGROV-1", "value": "0.331 µM (active)"}, {"measurement": "GI50", "setting": "A549", "value": "2.29 µM (inactive)"}, {"measurement": "GI50", "setting": "HOP-92", "value": "0.635 µM (active)"}, {"measurement": "GI50", "setting": "MDA-MB-435", "value": "0.942 µM (active)"}, {"measurement": "GI50", "setting": "BT-549", "value": "0.851 µM (active)"}, {"measurement": "GI50", "setting": "NCI-H23", "value": "2.05 µM (inactive)"}, {"measurement": "GI50", "setting": "HCC 2998", "value": "1.56 µM (inactive)"}, {"measurement": "GI50", "setting": "NCI-H522", "value": "200 nM (active)"}, {"measurement": "GI50", "setting": "RPMI-8226", "value": "283 nM (active)"}, {"measurement": "GI50", "setting": "CAKI-1", "value": "0.902 µM (active)"}, {"measurement": "GI50", "setting": "UACC-62", "value": "0.962 µM (active)"}, {"measurement": "GI50", "setting": "LOX IMVI", "value": "0.333 µM (active)"}, {"measurement": "GI50", "setting": "SF-268", "value": "0.863 µM (active)"}, {"measurement": "GI50", "setting": "OVCAR-8", "value": "0.822 µM (active)"}, {"measurement": "GI50", "setting": "MOLT-4", "value": "285 nM (active)"}]}, {"smiles": "O=CC(=C(I)I)c1ccccc1", "values": [{"measurement": "GI50", "setting": "COLO 205", "value": "2.51 µM (inactive)"}, {"measurement": "GI50", "setting": "Hs-578T", "value": "2.83 µM (inactive)"}, {"measurement": "GI50", "setting": "U-251", "value": "3.58 µM (inactive)"}, {"measurement": "GI50", "setting": "NCI-H460", "value": "17.1 µM (inactive)"}, {"measurement": "GI50", "setting": "DU-145", "value": "7.45 µM (inactive)"}, {"measurement": "GI50", "setting": "IGROV-1", "value": "4.06 µM (inactive)"}, {"measurement": "GI50", "setting": "A549", "value": "20.2 µM (inactive)"}, {"measurement": "GI50", "setting": "HOP-92", "value": "2.57 µM (inactive)"}, {"measurement": "GI50", "setting": "MDA-MB-435", "value": "2.07 µM (inactive)"}, {"measurement": "GI50", "setting": "BT-549", "value": "4.38 µM (inactive)"}, {"measurement": "GI50", "setting": "NCI-H23", "value": "2.05 µM (inactive)"}, {"measurement": "GI50", "setting": "HCC 2998", "value": "10.5 µM (inactive)"}, {"measurement": "GI50", "setting": "NCI-H522", "value": "2000 nM (inactive)"}, {"measurement": "GI50", "setting": "RPMI-8226", "value": "977 nM (active)"}, {"measurement": "GI50", "setting": "CAKI-1", "value": "3.03 µM (inactive)"}, {"measurement": "GI50", "setting": "UACC-62", "value": "6.08 µM (inactive)"}, {"measurement": "GI50", "setting": "LOX IMVI", "value": "1.66 µM (inactive)"}, {"measurement": "GI50", "setting": "SF-268", "value": "2.25 µM (inactive)"}, {"measurement": "GI50", "setting": "OVCAR-8", "value": "2.46 µM (inactive)"}, {"measurement": "GI50", "setting": "MOLT-4", "value": "289 nM (active)"}]}, {"smiles": "CC(=O)OCC1OC(O[C@H]2C=C[C@@H](C(=O)OCc3ccccc3)n3c(=O)n(-c4ccccc4)c(=O)n32)C(OC(C)=O)C(OC(C)=O)C1OC(C)=O", "note": "(stereo not given in full)", "values": [{"measurement": "GI50", "setting": "COLO 205", "value": "2 µM (inactive)"}, {"measurement": "GI50", "setting": "Hs-578T", "value": "1.99 µM (inactive)"}, {"measurement": "GI50", "setting": "U-251", "value": "2.14 µM (inactive)"}, {"measurement": "GI50", "setting": "NCI-H460", "value": "1.58 µM (inactive)"}, {"measurement": "GI50", "setting": "DU-145", "value": "2.61 µM (inactive)"}, {"measurement": "GI50", "setting": "IGROV-1", "value": "2.34 µM (inactive)"}, {"measurement": "GI50", "setting": "A549", "value": "17.2 µM (inactive)"}, {"measurement": "GI50", "setting": "HOP-92", "value": "1.96 µM (inactive)"}, {"measurement": "GI50", "setting": "MDA-MB-435", "value": "2.07 µM (inactive)"}, {"measurement": "GI50", "setting": "BT-549", "value": "1.8 µM (inactive)"}, {"measurement": "GI50", "setting": "NCI-H23", "value": "2.96 µM (inactive)"}, {"measurement": "GI50", "setting": "HCC 2998", "value": "1.73 µM (inactive)"}, {"measurement": "GI50", "setting": "NCI-H522", "value": "986 nM (active)"}, {"measurement": "GI50", "setting": "RPMI-8226", "value": "879 nM (active)"}, {"measurement": "GI50", "setting": "CAKI-1", "value": "1.48 µM (inactive)"}, {"measurement": "GI50", "setting": "UACC-62", "value": "1.59 µM (inactive)"}, {"measurement": "GI50", "setting": "LOX IMVI", "value": "1.2 µM (inactive)"}, {"measurement": "GI50", "setting": "SF-268", "value": "1.78 µM (inactive)"}, {"measurement": "GI50", "setting": "OVCAR-8", "value": "2.48 µM (inactive)"}, {"measurement": "GI50", "setting": "MOLT-4", "value": "2090 nM (inactive)"}]}]}
